According to patent publication US10633419B2, “Immunomodulators” (BRISTOL-MYERS SQUIBB COMPANY, priority 2014, dated 2020):
Positions of bridges follow the written chain, without caps; N, C: chain ends. Non-standard residues stand in square brackets, D forms with d. Residues, ends and D or L forms follow the SMILES beside them. *: point of attachment. X28 = O=C(O)CCCCCCCCCCNC(=O)CCC(=O)NCCCOCCOCCOCCCNC(=O)CCC(=O)NCCCOCCOCCOCCCN*; Trp(1-CH2COOH) = N[C@@H](Cc1cn(CC(=O)O)c2ccccc12)C(=O)O; Hyp = O=C(O)[C@@H]1C[C@@H](O)CN1; NMeNle = CCCC[C@H](NC)C(=O)O; NMeA = CN[C@@H](C)C(=O)O; Dap = NC[C@H](N)C(=O)O

Target: T1, PD-L1 (Homo sapiens, UniProt Q9NZQ7)
T1 construct: hPDL1(19-239)-TVMV-His; made in house; host or cells: HEK293T
T1 sequence (Q9NZQ7 with tags, fused parts or gaps): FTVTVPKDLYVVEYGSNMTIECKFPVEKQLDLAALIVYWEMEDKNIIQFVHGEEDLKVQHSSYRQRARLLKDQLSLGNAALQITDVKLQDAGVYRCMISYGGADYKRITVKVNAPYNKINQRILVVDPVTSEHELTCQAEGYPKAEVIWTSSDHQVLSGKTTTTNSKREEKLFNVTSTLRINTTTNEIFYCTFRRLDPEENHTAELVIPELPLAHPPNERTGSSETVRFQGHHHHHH
Test: PD-1/PD-L1 Homogenous Time-Resolved Fluorescence (HTRF) binding assay (PD-1-Ig/PD-L1-His)
Conditions: inhibition of PD-1-Ig binding to PD-L1-TVMV-His; value given as range class; read-out: HTRF IC50
Summary of the method: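 Inhibitors pre-incubated 15 min with PD-L1-His (10 nM final), then PD-1-Ig (20 nM final) added for 15 min in dPBS/0.1% BSA/0.05% Tween-20. Eu-cryptate anti-Ig (1 nM) and APC anti-His (20 nM) added, 30 min equilibration, 665/620 nm HTRF ratio read.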

| IC50 [nM] | SMILES |
| --- | --- |
| 10 to 99 | CCCC[C@H]1C(=O)N(C)[C@@H](CCCC)C(=O)N[C@@H](CCC(=O)O)C(=O)N[C@H](C(=O)NCC(=O)N[C@@H](Cc2cn(CC[C@H](NC(=O)CCCCCCCCCCCCCCC(=O)O)C(=O)O)nn2)C(N)=O)CSCC(=O)N[C@@H](Cc2ccc(O)cc2)C(=O)N(C)[C@@H](C)C(=O)N[C@@H](CC(=O)O)C(=O)N2CCC[C@H]2C(=O)N[C@@H](Cc2c[nH]cn2)C(=O)N[C@@H](CCC(N)=O)C(=O)N2C[C@H](O)C[C@H]2C(=O)N[C@@H](Cc2c[nH]c3ccccc23)C(=O)N[C@@H](CO)C(=O)N[C@@H](Cc2c[nH]c3ccccc23)C(=O)N1C [Example 14068] |
| 100 to 1600 | CCCC[C@H]1C(=O)N(C)[C@@H](CCCC)C(=O)N[C@@H](CCC(=O)O)C(=O)N[C@H](C(=O)NCC(=O)N[C@@H](Cc2cn(CCOCCOCCOCCOCCOCCOCCOCCOCCOCCOCCOCCNC(=O)CC[C@H](NC(=O)CCCCCCCCCCCCCCCCC(=O)O)C(=O)O)nn2)C(=O)O)CSCC(=O)N[C@@H](Cc2ccc(O)cc2)C(=O)N2CCCC[C@H]2C(=O)N[C@@H](CC(N)=O)C(=O)N2CCC[C@H]2C(=O)N[C@@H](CNC)C(=O)N[C@@H](CC(C)C)C(=O)N2C[C@H](O)C[C@H]2C(=O)N[C@@H](Cc2c[nH]c3ccccc23)C(=O)N[C@@H](CCN)C(=O)N[C@@H](Cc2cn(CC(=O)O)c3ccccc23)C(=O)N1C [Example 14107] |
| 100 to 1600 | CCCC[C@H]1C(=O)N(C)[C@@H](CCCC)C(=O)N[C@@H](CC(C)C)C(=O)N[C@H](C(=O)NCCCOCCOCCOCCCNC(=O)CCC(=O)NCCCOCCOCCOCCCNC(=O)CCC(=O)NCCCCCCCCCCC(=O)O)CSCC(=O)N[C@@H](Cc2ccc(O)cc2)C(=O)N(C)[C@@H](C)C(=O)N[C@@H](CC(N)=O)C(=O)N2CCC[C@H]2C(=O)N[C@@H](CN)C(=O)N[C@@H](CCC(N)=O)C(=O)N2C[C@H](O)C[C@H]2C(=O)N[C@@H](Cc2c[nH]c3ccccc23)C(=O)N[C@@H](CO)C(=O)N[C@@H](Cc2cn(CC(=O)O)c3ccccc23)C(=O)N1C [Example 11088] ({CH2CO}-Y[NMeA]NP[Dap]Q[Hyp]WS[Trp(1-CH2COOH)][NMeNle][NMeNle]LC-X28; thioether N-14) |
